Results as given in paper PMC11539244, “Relative inhibitory activities of newly developed diazabicyclooctanes, boronic acid derivatives, and penicillin-based sulfone β-lactamase inhibitors against broad-spectrum AmpC β-lactamases” (Antimicrobial Agents and Chemotherapy, 2024).
Like-named read-outs stand apart in the source and are kept apart here.

Legend:
PDC-5 = target: T1, PDC-5 (Pseudomonas aeruginosa, UniProt P24735, R79Q/T105A); experiment: biochemical; set-up: species or system P. aeruginosa
T1 construct: made in house; host or cells: E. coli TOP10, plasmid pUCp24

YRC-1 = YRC-1 (Yersinia ruckeri, UniProt Q20I87); experiment: IC50 of β-lactamase inhibitors, crude extract, YRC-1; format: biochemical
Sequence of YRC-1 (Q20I87 entry or part of it): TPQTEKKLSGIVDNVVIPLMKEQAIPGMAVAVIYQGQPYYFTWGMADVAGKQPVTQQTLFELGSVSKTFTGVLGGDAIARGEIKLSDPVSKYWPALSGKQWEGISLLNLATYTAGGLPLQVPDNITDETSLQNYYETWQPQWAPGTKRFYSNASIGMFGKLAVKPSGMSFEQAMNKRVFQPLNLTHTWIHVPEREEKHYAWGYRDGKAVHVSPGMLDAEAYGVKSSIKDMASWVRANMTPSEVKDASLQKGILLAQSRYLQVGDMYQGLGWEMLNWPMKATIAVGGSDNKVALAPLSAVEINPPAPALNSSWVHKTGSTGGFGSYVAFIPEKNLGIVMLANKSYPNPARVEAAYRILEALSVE

SRT-1 = SRT-1 (Serratia marcescens, UniProt P18539); experiment: IC50 of β-lactamase inhibitors, crude extract, SRT-1; format: biochemical; details: crude extract of E. coli TOP10 recombinant strain, mean of triplicate
Sequence of SRT-1 (P18539 22-376): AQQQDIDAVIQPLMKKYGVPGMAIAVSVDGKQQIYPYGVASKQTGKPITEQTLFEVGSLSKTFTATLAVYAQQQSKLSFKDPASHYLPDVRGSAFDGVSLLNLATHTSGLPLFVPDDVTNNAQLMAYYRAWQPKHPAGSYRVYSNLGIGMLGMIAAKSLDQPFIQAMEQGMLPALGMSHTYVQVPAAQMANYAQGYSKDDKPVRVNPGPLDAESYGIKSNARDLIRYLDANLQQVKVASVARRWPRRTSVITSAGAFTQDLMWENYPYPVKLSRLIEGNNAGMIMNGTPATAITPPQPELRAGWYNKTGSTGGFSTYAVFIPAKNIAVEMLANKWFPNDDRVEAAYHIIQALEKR

ACT-17 = ACT-17 (Enterobacter asburiae, UniProt P05364); format: biochemical; details: crude extract of E. coli TOP10 recombinant strain, mean of triplicate
Sequence of ACT-17 (P05364 21-381): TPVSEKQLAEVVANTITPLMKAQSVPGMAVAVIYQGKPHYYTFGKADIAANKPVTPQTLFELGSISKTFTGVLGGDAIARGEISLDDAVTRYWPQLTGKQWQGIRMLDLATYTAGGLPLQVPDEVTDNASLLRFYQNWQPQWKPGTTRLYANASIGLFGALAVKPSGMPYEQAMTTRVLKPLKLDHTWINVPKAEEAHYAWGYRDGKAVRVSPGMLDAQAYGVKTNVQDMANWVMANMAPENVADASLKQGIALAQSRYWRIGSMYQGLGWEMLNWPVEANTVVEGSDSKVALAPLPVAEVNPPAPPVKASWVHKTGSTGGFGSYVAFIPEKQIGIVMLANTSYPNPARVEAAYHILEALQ

PDC-382 = PDC-382 (Pseudomonas aeruginosa, UniProt P24735, T96I); experiment: biochemical; set-up: species or system P. aeruginosa
Sequence of PDC-382 (P24735 27-397 T96I): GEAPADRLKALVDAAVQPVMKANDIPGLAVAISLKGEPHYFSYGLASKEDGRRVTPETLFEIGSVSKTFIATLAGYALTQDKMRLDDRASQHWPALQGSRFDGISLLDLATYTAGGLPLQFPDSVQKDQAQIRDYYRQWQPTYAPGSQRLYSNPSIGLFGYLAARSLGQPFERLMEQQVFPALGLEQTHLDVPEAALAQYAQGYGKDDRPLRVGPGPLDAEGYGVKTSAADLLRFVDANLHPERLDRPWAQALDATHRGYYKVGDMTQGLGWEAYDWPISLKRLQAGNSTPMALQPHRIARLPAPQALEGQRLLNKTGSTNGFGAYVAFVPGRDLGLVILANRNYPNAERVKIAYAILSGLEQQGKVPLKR

DHA-1 = DHA-1 (Morganella morganii, UniProt P94958); experiment: IC50 of β-lactamase inhibitors, crude extract, DHA-1; format: biochemical
MOX-2 = MOX-2 (Aeromonas caviae, UniProt Q9L3G2); experiment: IC50 of β-lactamase inhibitors, crude extract, MOX-2; format: biochemical
Sequence of MOX-2 (Q9L3G2 entry or part of it): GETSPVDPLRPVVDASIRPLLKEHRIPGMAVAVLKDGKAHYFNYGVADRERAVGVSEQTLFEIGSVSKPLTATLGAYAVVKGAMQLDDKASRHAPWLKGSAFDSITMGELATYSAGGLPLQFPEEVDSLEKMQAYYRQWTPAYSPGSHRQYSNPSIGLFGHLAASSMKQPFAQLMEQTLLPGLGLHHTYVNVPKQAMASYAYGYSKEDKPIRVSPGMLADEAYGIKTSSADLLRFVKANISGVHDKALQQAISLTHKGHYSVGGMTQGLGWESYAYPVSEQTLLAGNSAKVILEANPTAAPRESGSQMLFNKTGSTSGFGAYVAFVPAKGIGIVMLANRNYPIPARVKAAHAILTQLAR

PDC-1 = target: T2, PDC-1 (Pseudomonas aeruginosa, UniProt P24735); experiment: biochemical; set-up: species or system P. aeruginosa
T2 construct: made in house; host or cells: E. coli TOP10, plasmid pUCp24
T2 sequence (P24735 27-397): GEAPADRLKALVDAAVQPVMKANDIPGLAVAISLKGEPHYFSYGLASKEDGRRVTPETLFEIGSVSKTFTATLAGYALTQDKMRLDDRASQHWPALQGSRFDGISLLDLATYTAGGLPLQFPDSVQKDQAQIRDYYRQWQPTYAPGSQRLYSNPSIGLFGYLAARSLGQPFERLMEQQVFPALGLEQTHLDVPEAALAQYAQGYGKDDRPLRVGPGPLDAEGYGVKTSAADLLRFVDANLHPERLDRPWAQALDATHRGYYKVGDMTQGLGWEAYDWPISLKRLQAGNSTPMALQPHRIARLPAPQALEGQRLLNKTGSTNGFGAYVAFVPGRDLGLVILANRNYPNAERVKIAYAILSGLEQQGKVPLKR

FOX-5 = FOX-5 (Aeromonas allosaccharophila, UniProt Q9F4K3); experiment: IC50 of β-lactamase inhibitors, crude extract, FOX-5; format: biochemical
Sequence of FOX-5 (Q9F4K3 entry or part of it): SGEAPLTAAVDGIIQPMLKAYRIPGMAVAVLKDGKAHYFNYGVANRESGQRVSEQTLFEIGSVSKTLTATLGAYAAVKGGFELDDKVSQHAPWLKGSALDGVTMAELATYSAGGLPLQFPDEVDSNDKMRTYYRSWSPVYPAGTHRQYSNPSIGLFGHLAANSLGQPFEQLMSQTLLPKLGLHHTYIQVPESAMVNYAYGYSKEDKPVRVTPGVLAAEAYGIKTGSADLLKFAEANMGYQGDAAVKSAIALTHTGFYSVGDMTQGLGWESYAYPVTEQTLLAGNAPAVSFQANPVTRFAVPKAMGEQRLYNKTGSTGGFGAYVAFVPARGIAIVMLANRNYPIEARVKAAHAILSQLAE

ACT-7 = ACT-7 (Enterobacter asburiae, UniProt B6V6L3); experiment: biochemical
Sequence of ACT-7 (B6V6L3 entry or part of it): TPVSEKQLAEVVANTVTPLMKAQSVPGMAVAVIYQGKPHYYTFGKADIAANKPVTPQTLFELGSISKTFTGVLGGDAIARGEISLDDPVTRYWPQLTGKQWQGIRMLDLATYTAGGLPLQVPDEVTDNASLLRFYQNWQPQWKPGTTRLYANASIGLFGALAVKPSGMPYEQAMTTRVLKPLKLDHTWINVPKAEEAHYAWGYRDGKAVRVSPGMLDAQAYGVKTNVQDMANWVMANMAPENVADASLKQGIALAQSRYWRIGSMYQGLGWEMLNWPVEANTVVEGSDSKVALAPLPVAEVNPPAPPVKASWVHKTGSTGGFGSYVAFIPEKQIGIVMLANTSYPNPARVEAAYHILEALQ

[1] = test system: E. coli ADC-50 (E. coli TOP10 recombinant strain); experiment: microbe, parasite or virus in culture; format: cell-based, Escherichia coli; details: ADC-50 (cAmpC of A. baumannii); susceptibility testing of recombinant E. coli
Experimental: (§1) In order to assess the relative inhibitory activities of those BLI against AmpC β-lactamases, the corresponding blaampC genes without the original promoter sequences were amplified by PCR with specific primers, and corresponding amplicons were cloned into plasmid pUCp24, as described previously ([12], [13]). […] Cultures of E. coli TOP10 harboring recombinant plasmids and therefore producing the different AmpC tested were grown overnight at 37°C in Luria-Bertani agar medium containing amoxicillin (AMX) (50 µg/mL). The activity of the following acquired class C β-lactamases could therefore be evaluated, namely, ACC-1 (originally from Hafnia spp.), FOX-5 (from Aeromonas allosaccharophila), CMY-2 and CMY-42 (from Citrobacter spp.), DHA-1 (from Morganella morganii), ACT-7 and ACT-17 (from Enterobacter asburiae), MIR-17 (from Enterobacter roggenkampii), MOX-2 (from Aeromonas caviae), and LAT-1 (from Citrobacter portucalensis) ([5]). […] Altogether, these enzymes were chosen as representatives of clinically relevant class C β-lactamases being sources of intrinsic or acquired resistance to broad-spectrum β-lactams among most of the commonly identified Gram-negative bacteria in clinical practice.
(§2) MICs were determined in triplicate by broth microdilution (BMD) for CAZ and AMX, as well as their combinations with each β-lactamase inhibitor. CAZ, AMX, and CLA were purchased from Sigma-Aldrich (St. Louis, MO, USA). All others inhibitors (TAZ HY-W009168, AVI HY-14879, REL HY-16752, VAB HY-19930, NAC HY-109008, ZID HY-120859, TAN HY-109124, XER HY-136072, DUR HY-117974, EMT HY-103095) were purchased from MedChem Express (Luzern, Switzerland). The concentration of each β-lactamase inhibitor was chosen as the concentration used in the respective BL/BLI combination under development or commercially available, according to EUCAST or CLSI ([18], [19]). […] BMD assays were performed in cation-adjusted Mueller-Hinton (MH) broth (Bio-Rad, Marnes-la-Coquette, France) for all antibiotics or antibiotic combinations listed above, according to the EUCAST guidelines ([20]).

LAT-1 = LAT-1 (Citrobacter portucalensis, UniProt Q48443); experiment: biochemical
Sequence of LAT-1 (Q48443 entry or part of it): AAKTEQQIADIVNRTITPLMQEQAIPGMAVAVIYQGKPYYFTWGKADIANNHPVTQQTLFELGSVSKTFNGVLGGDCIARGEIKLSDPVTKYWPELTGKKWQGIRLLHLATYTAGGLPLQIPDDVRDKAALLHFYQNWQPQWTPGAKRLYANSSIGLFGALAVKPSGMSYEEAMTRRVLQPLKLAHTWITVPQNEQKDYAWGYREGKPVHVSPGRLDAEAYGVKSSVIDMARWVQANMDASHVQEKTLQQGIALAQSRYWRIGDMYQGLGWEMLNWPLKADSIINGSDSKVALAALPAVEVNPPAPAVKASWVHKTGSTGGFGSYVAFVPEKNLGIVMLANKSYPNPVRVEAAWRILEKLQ

Ear-1 = Ear-1 (Klebsiella aerogenes, UniProt A0A0H3FRQ3); experiment: IC50 of β-lactamase inhibitors, crude extract, Ear-1; format: biochemical
Sequence of Ear-1 (A0A0H3FRQ3 entry or part of it): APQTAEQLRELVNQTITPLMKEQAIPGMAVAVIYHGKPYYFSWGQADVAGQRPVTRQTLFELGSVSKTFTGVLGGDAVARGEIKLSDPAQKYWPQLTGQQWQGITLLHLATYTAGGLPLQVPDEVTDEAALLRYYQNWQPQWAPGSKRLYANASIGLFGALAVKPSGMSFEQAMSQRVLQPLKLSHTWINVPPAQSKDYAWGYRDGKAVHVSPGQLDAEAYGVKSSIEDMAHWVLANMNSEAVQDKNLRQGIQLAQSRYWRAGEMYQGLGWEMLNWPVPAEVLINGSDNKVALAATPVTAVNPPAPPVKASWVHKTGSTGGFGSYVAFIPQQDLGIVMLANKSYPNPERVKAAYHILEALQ

MIR-17 = experiment: IC50 of β-lactamase inhibitors, crude extract, MIR-17; format: biochemical, Enterobacter roggenkampii; details: crude extract of E. coli TOP10 recombinant strain, mean of triplicate
ACC-1 = ACC-1 (Hafnia alvei, UniProt Q9XB24); experiment: IC50 of β-lactamase inhibitors, crude extract, ACC-1; format: biochemical
Sequence of ACC-1 (Q9XB24 entry or part of it): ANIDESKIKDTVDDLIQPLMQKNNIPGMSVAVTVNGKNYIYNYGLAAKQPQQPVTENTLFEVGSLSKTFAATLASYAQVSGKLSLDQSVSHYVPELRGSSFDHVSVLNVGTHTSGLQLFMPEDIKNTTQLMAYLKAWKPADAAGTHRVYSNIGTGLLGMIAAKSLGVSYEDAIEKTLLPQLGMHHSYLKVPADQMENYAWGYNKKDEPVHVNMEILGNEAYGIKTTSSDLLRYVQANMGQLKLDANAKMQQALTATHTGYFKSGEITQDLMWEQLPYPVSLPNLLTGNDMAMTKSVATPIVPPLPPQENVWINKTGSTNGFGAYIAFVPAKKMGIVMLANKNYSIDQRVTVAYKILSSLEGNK

CMY-42 = target: T3, CMY-42 (Klebsiella pneumoniae, UniProt Q48434, V231S); experiment: biochemical; set-up: species or system Citrobacter spp.
T3 construct: made in house; host or cells: E. coli TOP10, plasmid pUCp24
T3 sequence (Q48434 21-381 V231S): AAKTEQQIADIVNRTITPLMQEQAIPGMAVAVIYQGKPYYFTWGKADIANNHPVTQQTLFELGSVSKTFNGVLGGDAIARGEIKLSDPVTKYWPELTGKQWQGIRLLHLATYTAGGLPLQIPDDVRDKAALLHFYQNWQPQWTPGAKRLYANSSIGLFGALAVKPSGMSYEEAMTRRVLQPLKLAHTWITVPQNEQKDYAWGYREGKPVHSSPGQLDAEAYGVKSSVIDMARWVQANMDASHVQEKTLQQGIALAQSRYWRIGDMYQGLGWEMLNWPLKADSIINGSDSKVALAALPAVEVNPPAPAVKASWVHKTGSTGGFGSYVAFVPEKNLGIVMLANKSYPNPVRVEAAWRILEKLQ

ADC-50 = ADC-50 (Acinetobacter baumannii, UniProt Q6DRA1); experiment: IC50 of β-lactamase inhibitors, crude extract, ADC-50; format: biochemical, A. baumannii
E. coli TOP10 = experiment: microbe, parasite or virus in culture; format: cell-based; details: Escherichia coli, TOP10; E. coli TOP 10; β-lactamase inhibitor alone; read-out: MIC values of inhibitor alone
Experimental: as §1, §2

CMY-2 = target: T4, CMY-2 (Klebsiella pneumoniae, UniProt Q48434); experiment: biochemical; set-up: species or system Citrobacter spp.
T4 construct: made in house; host or cells: E. coli TOP10, plasmid pUCp24
T4 sequence (Q48434 21-381): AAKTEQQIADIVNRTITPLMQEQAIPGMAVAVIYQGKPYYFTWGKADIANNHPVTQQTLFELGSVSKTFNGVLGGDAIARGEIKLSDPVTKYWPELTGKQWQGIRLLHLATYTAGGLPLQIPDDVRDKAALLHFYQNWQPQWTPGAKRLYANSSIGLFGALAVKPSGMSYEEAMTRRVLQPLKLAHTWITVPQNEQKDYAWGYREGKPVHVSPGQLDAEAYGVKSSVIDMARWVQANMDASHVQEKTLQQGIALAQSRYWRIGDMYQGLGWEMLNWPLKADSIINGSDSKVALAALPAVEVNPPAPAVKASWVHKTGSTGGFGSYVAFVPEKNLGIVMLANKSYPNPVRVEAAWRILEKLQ

[2] = PDC-5, crude extract of E. coli TOP10 recombinant strain, mean of triplicate, read-out: IC50
[3] = YRC-1, crude extract of E. coli TOP10 recombinant strain, mean of triplicate, read-out: IC50
[4] = PDC-382, crude extract of E. coli TOP10 recombinant strain, mean of triplicate, read-out: IC50
[5] = DHA-1, crude extract of E. coli TOP10 recombinant strain, mean of triplicate, read-out: IC50
[6] = MOX-2, crude extract of E. coli TOP10 recombinant strain, mean of triplicate, read-out: IC50
[7] = PDC-1, crude extract of E. coli TOP10 recombinant strain, mean of triplicate, read-out: IC50
[8] = FOX-5, crude extract of E. coli TOP10 recombinant strain, mean of triplicate, read-out: IC50
[9] = ACT-7, crude extract of E. coli TOP10 recombinant strain, mean of triplicate, read-out: IC50
[10] = LAT-1, crude extract of E. coli TOP10 recombinant strain, mean of triplicate, read-out: IC50
[11] = Ear-1, crude extract of E. coli TOP10 recombinant strain, mean of triplicate, read-out: IC50
[12] = ACC-1, crude extract of E. coli TOP10 recombinant strain, mean of triplicate, read-out: IC50
[13] = CMY-42, crude extract of E. coli TOP10 recombinant strain, mean of triplicate, read-out: IC50
[14] = ADC-50, crude extract of E. coli TOP10 recombinant strain, mean of triplicate, read-out: IC50
[15] = ADC-50, crude extract of E. coli TOP10 recombinant strain, mean of triplicate

SMILES | IC50 (MIR-17) [nM] | inhibition of ADC-50 (in words) (ADC-50; ADC-50 of A. baumannii) | IC50 (PDC-5) [nM] | MIC (E. coli TOP10) [µg/mL] | IC50 (YRC-1) [nM] | IC50 (SRT-1) [µM] | IC50 (ACT-17) [nM] | IC50 (PDC-382) [µM] | IC50 (DHA-1) [nM] | IC50 (MOX-2) [nM] | IC50 (PDC-1) [µM] | IC50 (FOX-5) [nM] | IC50 (ACT-7) [nM] | IC50 (CMY-2) [nM] | IC50 (LAT-1) [nM] | IC50 (Ear-1) [nM] | IC50 (ACC-1) [nM] | IC50 (CMY-42) [nM] | IC50 (ADC-50; [15]) [µM] | further results
NCCN[C@H]1CC[C@H](CC(=O)N[C@H]2Cc3cccc(C(=O)O)c3OB2O)CC1 [Taniborbactam, taniborbactam] | 30 | not significantly inhibited | – | – | – | – | – | – | – | – | – | – | – | – | – | – | – | – | – | IC50 (PDC-5; [2]): 510 nM; IC50 (YRC-1; [3]): 100 nM; IC50 (SRT-1; read-out: IC50): 0.06 µM; IC50 (ACT-17; read-out: IC50): 210 nM; IC50 (PDC-382; [4]): 5 µM; IC50 (DHA-1; [5]): 120 nM; IC50 (MOX-2; [6]): 320 nM; IC50 (PDC-1; [7]): 1.1 µM; IC50 (FOX-5; [8]): 160 nM; IC50 (ACT-7; [9]): 190 nM; sensitivity of ADC-50 β-lactamase to inhibitor (in words) [1]: resistant; IC50 (LAT-1; [10]): 230 nM; IC50 (Ear-1; [11]): 110 nM; IC50 (ACC-1; [12]): 180 nM; IC50 (CMY-42; [13]): 680 nM; IC50 (ADC-50; [14]): 26 µM
CC1=C[C@@H]2CN(C(=O)N2OS(=O)(=O)O)[C@@H]1C(N)=O [Durlobactam, durlobactam] | 5 | – | 13 | 0.125 | 5 | 0.022 | 3 | 0.1 | 4 | 55 | 0.009 | 22 | 4 | 4 | 5 | 6 | 5 | 11 | 0.17 | IC50 (ADC-50; read-out: IC50 value, ADC-50 of A. baumannii): 0.00017 µM
O=C(O)C[C@@H]1CC[C@H](NC(=O)Cc2cccs2)B(O)O1 [Vaborbactam, vaborbactam] | 1100 | not significantly inhibited | 37000 | – | 2000 | 6.9 | 2600 | 54 | 3100 | 1900 | 11 | 17000 | 3600 | 5300 | 1200 | 840 | 3600 | 13000 | > 100 | –
O=C(NC1CCNCC1)[C@@H]1CC[C@@H]2CN1C(=O)N2OS(=O)(=O)O [Relebactam, relebactam] | 1300 | – | – | – | 1900 | 37 | 330 | – | 850 | 2400 | – | 2000 | 710 | 590 | 230 | 890 | 580 | 1100 | 13 | IC50 (ADC-50; ADC-50, crude extract of E. coli TOP10 recombinant strain, mean of triplicate, listed as REL): > 13 µM
O=C(NNC(=O)[C@@H]1CC[C@@H]2CN1C(=O)N2OS(=O)(=O)O)[C@@H]1CCCNC1 [Zidebactam, zidebactam] | 110 | – | – | 0.125 | 90 | 37 | 140 | – | 60 | 2700 | – | 990 | 120 | 120 | 5 | 120 | 90 | 170 | 5.5 | IC50 (ADC-50; ADC-50, crude extract of E. coli TOP10 recombinant strain, mean of triplicate, listed as ZID): 5 µM
C[C@]1(Cn2ccnn2)[C@H](C(=O)O)N2C(=O)C[C@H]2S1(=O)=O [Tazobactam, tazobactam] | 83000 | – | – | – | > 100000 | 48 | – | – | 1300 | > 100000 | – | 23000 | 23000 | 20000 | 7300 | 72000 | 2100 | 24000 | > 100 | –
NCCONC(=O)[C@@H]1CC[C@@H]2CN1C(=O)N2OS(=O)(=O)O [Nacubactam, nacubactam] | 600 | not significantly inhibited | 1200 | 4 | 130 | 70 | 290 | 34 | 500 | 4100 | 5.1 | 5300 | 370 | 420 | 290 | 280 | 450 | 1700 | > 100 | –
Cn1cc[n+](C[C@@]2(C)[C@H](C(=O)[O-])N3C(=O)C[C@H]3S2(=O)=O)n1 [Enmetazobactam, enmetazobactam] | > 100000 | not significantly inhibited | – | – | – | – | – | – | – | – | – | – | – | – | – | – | – | – | – | IC50 (PDC-5; [2]): > 100000 nM; IC50 (YRC-1; [3]): > 100000 nM; IC50 (SRT-1; read-out: IC50): > 100 µM; IC50 (ACT-17; read-out: IC50): 62000 nM; IC50 (PDC-382; [4]): > 100 µM; IC50 (DHA-1; [5]): 26000 nM; IC50 (MOX-2; [6]): > 100000 nM; IC50 (PDC-1; [7]): > 100 µM; IC50 (FOX-5; [8]): > 100000 nM; IC50 (ACT-7; [9]): 43000 nM; IC50 (CMY-2; CMY-2, crude extract of E. coli TOP10 recombinant strain, mean of triplicate, read-out: IC50): 40000 nM; IC50 (LAT-1; [10]): 97000 nM; IC50 (Ear-1; [11]): 91000 nM; IC50 (ACC-1; [12]): 39000 nM; IC50 (CMY-42; [13]): 64000 nM; IC50 (ADC-50; [14]): > 100 µM
NC(=O)[C@@H]1CC[C@@H]2CN1C(=O)N2OS(=O)(=O)O [Avibactam, avibactam] | 1000 | – | – | – | 2100 | 6.7 | 900 | – | 110 | 5600 | – | 1000 | 800 | 610 | 400 | 880 | 250 | 650 | 61 | IC50 (ADC-50; ADC-50, crude extract of E. coli TOP10 recombinant strain, mean of triplicate, listed as AVI): > 13 µM
O=C(O)[C@H]1/C(=C/CO)O[C@@H]2CC(=O)N21 [Clavulanic acid, clavulanic acid] | > 100000 | – | > 100000 | – | > 100000 | > 100 | – | > 100 | > 100000 | > 100000 | > 100 | > 100000 | > 100000 | > 100000 | > 100000 | > 100000 | > 100000 | > 100000 | > 100 | –
